Test results taken from US20250098679A1, “HERBICIDAL PYRIDONE DERIVATIVES” (SYNGENTA CROP PROTECTION AG, priority 2021, published 2025).

Experiments:
Format in all cases: in vivo
Conditions in all cases: evaluated after 13 days
Zea mays (ZEAMX) [1] = assay: Pre-emergence Test, Zea mays (ZEAMX)
[2] = test system: Echinochloa crus-galli (ECHCG); assay: Pre-emergence Test, Echinochloa crus-galli (ECHCG)
[3] = test system: Amaranthus retoflexus (AMARE); assay: Pre-emergence Test, Amaranthus retoflexus (AMARE)
[4] = test system: Amaranthus retoflexus (AMARE); assay: Post-emergence Test, Amaranthus retoflexus (AMARE); design: key to percentage damage caused to the plant, AMARE (five-point scale): 5=81-100%, 4=61-80%, 3=41-60%, 2=21-40%, 1=0-20% damage
Procedure, shortened: (§1)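 Spray application at 1000 g/ha unless otherwise stated. Damage was scored 13 days later as 1 (0-20%) to 5 (81-100%).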

[5] = test system: Amaranthus palmeri (AMAPA); assay: Pre-emergence Test, Amaranthus palmeri (AMAPA)
Setaria faberi (SETFA) [6] = assay: Post-emergence Test, Setaria faberi (SETFA); design: key to percentage damage caused to the plant, SETFA (five-point scale): 5=81-100%, 4=61-80%, 3=41-60%, 2=21-40%, 1=0-20% damage
Procedure, shortened: as §1

[7] = test system: Ipomoea hederacea (IPOHE); assay: Pre-emergence Test, Ipomoea hederacea (IPOHE)
[8] = test system: Amaranthus palmeri (AMAPA); assay: Post-emergence Test, Amaranthus palmeri (AMAPA); design: key: 5=81-100%, 4=61-80%, 3=41-60%, 2=21-40%, 1=0-20% damage
Procedure, shortened: as §1

[9] = test system: Echinochloa crus-galli (ECHCG); assay: Post-emergence Test, Echinochloa crus-galli (ECHCG); design: key to percentage damage caused to the plant, ECHCG (five-point scale): 5=81-100%, 4=61-80%, 3=41-60%, 2=21-40%, 1=0-20% damage
Procedure, shortened: as §1

Setaria faberi (SETFA) [10] = assay: Pre-emergence Test, Setaria faberi (SETFA)
Zea mays (ZEAMX) [11] = assay: Post-emergence Test, Zea mays (ZEAMX); design: key to percentage damage caused to the plant, ZEAMX (five-point scale): 5=81-100%, 4=61-80%, 3=41-60%, 2=21-40%, 1=0-20% damage
Procedure, shortened: as §1

[12] = test system: Ipomoea hederacea (IPOHE); assay: Post-emergence Test, Ipomoea hederacea (IPOHE); design: key to percentage damage caused to the plant, IPOHE (five-point scale): 5=81-100%, 4=61-80%, 3=41-60%, 2=21-40%, 1=0-20% damage
Procedure, shortened: as §1

Compound | Pre-emergence Test ZEAMX, percentage damage caused to the plant (five-point scale) (Zea mays (ZEAMX) [1]; 250 g/Ha (*)) | Pre-emergence Test ECHCG, percentage damage caused to the plant (five-point scale) ([2]; 250 g/Ha (*)) | Pre-emergence Test AMARE, percentage damage caused to the plant (five-point scale) ([3]; 250 g/Ha (*)) | percentage damage caused to the plant, AMARE (five-point scale) ([4]; 250 g/Ha) | Pre-emergence Test AMAPA, percentage damage caused to the plant (five-point scale) ([5]; 250 g/Ha (*)) | percentage damage caused to the plant, SETFA (five-point scale) (Setaria faberi (SETFA) [6]; 250 g/Ha) | Pre-emergence Test IPOHE, percentage damage caused to the plant (five-point scale) ([7]; 250 g/Ha (*)) | percentage damage caused to the plant, AMAPA (five-point scale) ([8]; 250 g/Ha) | percentage damage caused to the plant, ECHCG (five-point scale) ([9]; 250 g/Ha) | Pre-emergence Test SETFA, percentage damage caused to the plant (five-point scale) (Setaria faberi (SETFA) [10]; 250 g/Ha (*)) | percentage damage caused to the plant, ZEAMX (five-point scale) (Zea mays (ZEAMX) [11]; 250 g/Ha) | percentage damage caused to the plant, IPOHE (five-point scale) ([12]; 250 g/Ha) | Pre-emergence Test ZEAMX, percentage damage caused to the plant (five-point scale) (Zea mays (ZEAMX) [1]; 1000 g/ha) | Pre-emergence Test ECHCG, percentage damage caused to the plant (five-point scale) ([2]; 1000 g/ha) | Pre-emergence Test AMARE, percentage damage caused to the plant (five-point scale) ([3]; 1000 g/ha) | percentage damage caused to the plant, AMARE (five-point scale) ([4]; 1000 g/ha) | Pre-emergence Test AMAPA, percentage damage caused to the plant (five-point scale) ([5]; 1000 g/ha) | percentage damage caused to the plant, SETFA (five-point scale) (Setaria faberi (SETFA) [6]; 1000 g/ha) | Pre-emergence Test IPOHE, percentage damage caused to the plant (five-point scale) ([7]; 1000 g/ha) | percentage damage caused to the plant, AMAPA (five-point scale) ([8]; 1000 g/ha) | also measured
CCn1c(Cn2ncc(Cl)c2C2CC2)cc(=O)c(C(=O)O)c1-c1ccc(Cl)c(Cl)c1 [Compound 93, 6-[(4-chloro-5-cyclopropyl-pyrazol-1-yl)methyl]-2-(3,4-dichlorophenyl)-1-ethyl-4-oxo-pyridine-3-carboxylic acid] | 0 | 0 | 1 (1=0-20%) | 1 (1=0-20%) | 2 (2=21-40%) | 1 (1=0-20%) | 0 | 1 (1=0-20%) | 2 (2=21-40%) | 0 | 1 (1=0-20%) | 1 (1=0-20%) |  |  |  |  |  |  |  |  | 
Cn1c(Cn2ccc(C(F)(F)F)n2)cc(=O)c(C(=O)O)c1-c1ccc(C#N)c(Cl)c1 [Compound 117, 2-(3-chloro-4-cyano-phenyl)-1-methyl-4-oxo-6-[[3-(trifluoromethyl)pyrazol-1-yl]methyl]pyridine-3-carboxylic acid] | 0 | 3 (3=41-60%) | 0 | 0 | 1 (1=0-20%) | 3 (3=41-60%) | 0 | 0 | 3 (3=41-60%) | 4 (4=61-80%) | 1 (1=0-20%) | 3 (3=41-60%) | 1 (1=0-20%) | 4 (4=61-80%) | 2 (2=21-40%) | 1 (1=0-20%) | 2 (2=21-40%) | 4 (4=61-80%) | 2 (2=21-40%) | 2 (2=21-40%) | percentage damage caused to the plant, ECHCG (five-point scale) ([9]; 1000 g/ha): 4 (4=61-80%); Pre-emergence Test SETFA, percentage damage caused to the plant (five-point scale) (Setaria faberi (SETFA) [10]; 1000 g/ha): 5 (5=81-100%); percentage damage caused to the plant, ZEAMX (five-point scale) (Zea mays (ZEAMX) [11]; 1000 g/ha): 4 (4=61-80%); percentage damage caused to the plant, IPOHE (five-point scale) ([12]; 1000 g/ha): 3 (3=41-60%)
CCn1c(Cn2cc([N+](=O)[O-])c(C)n2)cc(=O)c(C(=O)O)c1-c1ccc(Cl)c(Cl)c1 [Compound 64, 2-(3,4-dichlorophenyl)-1-ethyl-6-[(3-methyl-4-nitro-pyrazol-1-yl)methyl]-4-oxo-pyridine-3-carboxylic acid] | 0 | 0 | 0 | 3 (3=41-60%) | 1 (1=0-20%) | 2 (2=21-40%) | 3 (3=41-60%) | 2 (2=21-40%) | 3 (3=41-60%) | 2 (2=21-40%) | 1 (1=0-20%) | 1 (1=0-20%) |  |  |  |  |  |  |  |  | 
CCn1c(Cn2ccc(C(F)(F)F)n2)cc(=O)c(C(=O)O)c1-c1ccc(Cl)c(Cl)c1 [Compound 2, 2-(3,4-dichlorophenyl)-1-ethyl-4-oxo-6-[[3-(trifluoromethyl)pyrazol-1-yl]methyl]pyridine-3-carboxylic acid] | 4 (4=61-80%) | 5 (5=81-100%) | 1 (1=0-20%) | 3 (3=41-60%) | 0 | 4 (4=61-80%) | 4 (4=61-80%) | 3 (3=41-60%) | 4 (4=61-80%) | 5 (5=81-100%) | 4 (4=61-80%) | 3 (3=41-60%) | 4 (4=61-80%) | 5 (5=81-100%) | 3 (3=41-60%) | 4 (4=61-80%) | 3 (3=41-60%) | 5 (5=81-100%) | 3 (3=41-60%) | 4 (4=61-80%) | percentage damage caused to the plant, ECHCG (five-point scale) ([9]; 1000 g/ha): 4 (4=61-80%); Pre-emergence Test SETFA, percentage damage caused to the plant (five-point scale) (Setaria faberi (SETFA) [10]; 1000 g/ha): 5 (5=81-100%); percentage damage caused to the plant, ZEAMX (five-point scale) (Zea mays (ZEAMX) [11]; 1000 g/ha): 4 (4=61-80%); percentage damage caused to the plant, IPOHE (five-point scale) ([12]; 1000 g/ha): 4 (4=61-80%)
CCn1c(Cn2cnc(Cl)n2)cc(=O)c(C(=O)O)c1-c1ccc(Cl)c(Cl)c1 [Compound 5, 6-[(3-chloro-1,2,4-triazol-1-yl)methyl]-2-(3,4-dichlorophenyl)-1-ethyl-4-oxo-pyridine-3-carboxylic acid] | 0 | 3 (3=41-60%) | 0 |  | 0 |  | 0 |  |  | 2 (2=21-40%) |  |  | 0 | 4 (4=61-80%) | 0 | 1 (1=0-20%) | 2 (2=21-40%) | 4 (4=61-80%) | 0 | 1 (1=0-20%) | percentage damage caused to the plant, ECHCG (five-point scale) ([9]; 1000 g/ha): 1 (1=0-20%); Pre-emergence Test SETFA, percentage damage caused to the plant (five-point scale) (Setaria faberi (SETFA) [10]; 1000 g/ha): 3 (3=41-60%); percentage damage caused to the plant, ZEAMX (five-point scale) (Zea mays (ZEAMX) [11]; 1000 g/ha): 2 (2=21-40%); percentage damage caused to the plant, IPOHE (five-point scale) ([12]; 1000 g/ha): 1 (1=0-20%)
CCOC(=O)c1c(-c2ccc(Cl)c(Cl)c2)n(CC)c(Cn2ccc(Cl)n2)c(Br)c1=O [Compound 27, ethyl 5-bromo-6-[(3-chloropyrazo1-1-yl)methyl]-2-(3,4-dichlorophenyl)-1-ethyl-4-oxo-pyridine-3-carboxylate] |  |  |  |  |  |  |  |  |  |  |  |  | 0 | 0 | 1 (1=0-20%) | 0 | 0 | 0 | 0 | 0 | percentage damage caused to the plant, ECHCG (five-point scale) ([9]; 1000 g/ha): 0; Pre-emergence Test SETFA, percentage damage caused to the plant (five-point scale) (Setaria faberi (SETFA) [10]; 1000 g/ha): 0; percentage damage caused to the plant, ZEAMX (five-point scale) (Zea mays (ZEAMX) [11]; 1000 g/ha): 0; percentage damage caused to the plant, IPOHE (five-point scale) ([12]; 1000 g/ha): 0
